In ChEMBL document CHEMBL1201862, “PubChem BioAssay data set” (2004) one finds IC50, EC50 and AC50 data, which are given here for four compounds.

Calls of active or inactive are those of the source.

Assay [1] has as its system HEK293. Description: SAR analysis of compounds that are cytotoxic to HEK293 - Set 3. [Related pubchem assays (depositor defined):AID1575, AID1578, AID1848, AID1849, AID2001, AID2333, AID2334, AID2335, AID2337, AID2469]. The class given is functional, cell-based. Particulars: Homo sapiens.
Assay [2] concerns the target T1, Interleukin-8 (Homo sapiens, UniProt P10145).
T1 sequence (P10145 whole entry): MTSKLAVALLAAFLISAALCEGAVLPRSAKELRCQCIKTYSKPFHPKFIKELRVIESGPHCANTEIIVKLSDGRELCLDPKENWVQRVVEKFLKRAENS
Description: SAR analysis of Tumor necrosis factor alpha (TNF-alpha) induced IL-8 secretion in MCF-7/NOD1 cells - Set 2. [Related pubchem assays (depositor defined):AID1575, AID2250, AID2260]. The class given is functional, cell-based.

For assay [3], the target named is T2, Nucleotide-binding oligomerization domain-containing protein 1 (Homo sapiens, UniProt Q9Y239).
T2 sequence (Q9Y239 whole entry): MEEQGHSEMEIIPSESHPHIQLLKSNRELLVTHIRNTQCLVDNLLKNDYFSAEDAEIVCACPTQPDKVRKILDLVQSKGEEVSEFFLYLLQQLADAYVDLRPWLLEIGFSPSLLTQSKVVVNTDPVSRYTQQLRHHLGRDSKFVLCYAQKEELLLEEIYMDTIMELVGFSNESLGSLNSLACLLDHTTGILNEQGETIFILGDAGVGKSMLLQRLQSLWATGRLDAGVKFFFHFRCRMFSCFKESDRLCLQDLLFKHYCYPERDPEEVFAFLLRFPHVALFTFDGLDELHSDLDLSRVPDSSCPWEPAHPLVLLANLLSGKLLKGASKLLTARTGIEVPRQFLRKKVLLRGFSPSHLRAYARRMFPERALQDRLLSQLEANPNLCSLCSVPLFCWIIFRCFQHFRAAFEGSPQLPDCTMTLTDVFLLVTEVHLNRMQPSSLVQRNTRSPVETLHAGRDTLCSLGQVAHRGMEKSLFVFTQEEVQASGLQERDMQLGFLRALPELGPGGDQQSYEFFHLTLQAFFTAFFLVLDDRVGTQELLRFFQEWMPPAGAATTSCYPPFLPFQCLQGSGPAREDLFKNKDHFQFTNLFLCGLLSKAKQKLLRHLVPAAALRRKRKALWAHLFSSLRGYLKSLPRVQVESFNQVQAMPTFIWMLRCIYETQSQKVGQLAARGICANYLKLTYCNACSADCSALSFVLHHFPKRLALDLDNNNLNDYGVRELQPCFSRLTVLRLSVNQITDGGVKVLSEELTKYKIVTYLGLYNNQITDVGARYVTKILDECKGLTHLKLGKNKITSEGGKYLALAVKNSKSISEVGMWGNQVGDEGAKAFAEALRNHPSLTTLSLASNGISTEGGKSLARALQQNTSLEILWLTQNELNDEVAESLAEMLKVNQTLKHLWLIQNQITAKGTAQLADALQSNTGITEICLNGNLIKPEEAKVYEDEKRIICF
The experiment in a line: SAR analysis of compounds that inhibit NOD1 - Set 2. [Related pubchem assays (depositor defined):AID1566, AID1575, AID1578, AID1849, AID1852, AID2333, AID2335, AID2798]. In kind it is functional.

The target in a further assay is Tumor necrosis factor (Homo sapiens, UniProt P01375). Description: TNFa-triggered NF-kB activation inhibitors, SAR follow-up, cell-based, set 3 (AID 2801). The class given is functional.
Assay [4] addresses T3, Nucleotide-binding oligomerization domain-containing protein 2 (Homo sapiens, UniProt Q9HC29). The experiment in a line: NOD2 inhibitors, SAR follow-up, set 2 (AID 2475). In kind it is functional.
Assay [5] has as its target T1, Interleukin-8. The experiment in a line: SAR analysis of GM-Tri-DAP induced IL-8 secretion in MCF-7/NOD1 cells - Set 2. [Related pubchem assays (depositor defined):AID1575, AID1578, AID2333]. In kind it is functional, cell-based.
In assay [6] the target is T2, Nucleotide-binding oligomerization domain-containing protein 1. The experiment in a line: SAR analysis of NF-kappaB dependent luciferase using DAP as an inducer - Set 2. [Related pubchem assays (depositor defined):AID1566, AID1575, AID1578, AID1579, AID1849, AID1852, AID2264]. The class given is functional.
Assay [7] has as its system HEK293. The experiment in a line: SAR analysis of compounds that are cytotoxic to HEK293 - Set 2. [Related pubchem assays (depositor defined):AID1575, AID1578, AID1849, AID2001, AID2333, AID2334, AID2335, AID2337, AID2800]. In kind it is functional, cell-based. Particulars: Homo sapiens.
In assay [8] the target is T3, Nucleotide-binding oligomerization domain-containing protein 2. The experiment in a line: NOD2 signaling inhibitors, analog potency, SAR follow-up, cell-based, set 3 (AID 2799). In kind it is functional.
Assay [9] concerns the target T2, Nucleotide-binding oligomerization domain-containing protein 1. Description: SAR analysis of compounds that inhibit NOD1 - Set 3. [Related pubchem assays (depositor defined):AID1566, AID1575, AID1578, AID1849, AID1852, AID2333, AID2335, AID2466]. In kind it is functional.
Assay [10] concerns the target T4, Alkaline phosphatase, tissue-nonspecific isozyme (Homo sapiens, UniProt P05186).
T4 sequence (P05186 whole entry): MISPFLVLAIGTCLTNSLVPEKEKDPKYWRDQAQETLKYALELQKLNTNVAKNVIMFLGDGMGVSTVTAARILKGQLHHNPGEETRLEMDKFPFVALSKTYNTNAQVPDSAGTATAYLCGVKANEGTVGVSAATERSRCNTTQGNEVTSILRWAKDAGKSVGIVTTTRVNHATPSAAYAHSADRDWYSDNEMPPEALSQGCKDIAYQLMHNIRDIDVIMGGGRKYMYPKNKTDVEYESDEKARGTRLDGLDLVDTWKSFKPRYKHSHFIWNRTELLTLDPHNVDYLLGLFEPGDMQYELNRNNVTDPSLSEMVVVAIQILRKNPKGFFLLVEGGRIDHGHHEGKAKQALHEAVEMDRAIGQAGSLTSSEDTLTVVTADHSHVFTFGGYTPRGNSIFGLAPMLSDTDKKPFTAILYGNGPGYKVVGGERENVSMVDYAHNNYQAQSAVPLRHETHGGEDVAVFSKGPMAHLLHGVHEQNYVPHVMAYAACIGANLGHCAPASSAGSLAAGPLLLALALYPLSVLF
Description: TNAP enzyme activators, dose response, selectivity assay for mouse IAP activator project, biochemical, TNAP isozyme, mouse IAP uHTS hits (AID 488880). The class given is functional.

The target in assay [11] is Dual specificity tyrosine-phosphorylation-regulated kinase 1A (Rattus norvegicus, UniProt Q63470). In kind it is biochemical, Homo sapiens.
The nature of assay [12]: Counterscreen for IDE inhibitors: Luminescence-based cell-based high throughput dose response assay to identify compounds that are cytotoxic to HEK cells. [Related pubchem assays: 434962 (Primary screen (IDE inhibitors in singlicate)), 449730 (Counterscreen (Cytotoxicity in triplicate)), 435028 (Confirmation (IDE inhibitors in triplicate)) …. The class given is functional. Conditions: HEK293. (Counterscreens check selectivity or assay interference.)

Assay [13] concerns the target Intestinal-type alkaline phosphatase (Mus musculus, UniProt P24822). The experiment in a line: mouse intestinal alkaline phosphatase activators, dose response, biochemical, luminescence, uHTS hits (AID 488783). In kind it is functional.
The target in assay [14] is Intestinal-type alkaline phosphatase (Homo sapiens, UniProt P09923). The experiment in a line: activation of human intestinal alkaline phosphatase – biochemical, dose response (AID 488873). The class given is functional.
The next assay concerns the target T5, Insulin-degrading enzyme (Homo sapiens, UniProt P14735).
T5 sequence (P14735 whole entry): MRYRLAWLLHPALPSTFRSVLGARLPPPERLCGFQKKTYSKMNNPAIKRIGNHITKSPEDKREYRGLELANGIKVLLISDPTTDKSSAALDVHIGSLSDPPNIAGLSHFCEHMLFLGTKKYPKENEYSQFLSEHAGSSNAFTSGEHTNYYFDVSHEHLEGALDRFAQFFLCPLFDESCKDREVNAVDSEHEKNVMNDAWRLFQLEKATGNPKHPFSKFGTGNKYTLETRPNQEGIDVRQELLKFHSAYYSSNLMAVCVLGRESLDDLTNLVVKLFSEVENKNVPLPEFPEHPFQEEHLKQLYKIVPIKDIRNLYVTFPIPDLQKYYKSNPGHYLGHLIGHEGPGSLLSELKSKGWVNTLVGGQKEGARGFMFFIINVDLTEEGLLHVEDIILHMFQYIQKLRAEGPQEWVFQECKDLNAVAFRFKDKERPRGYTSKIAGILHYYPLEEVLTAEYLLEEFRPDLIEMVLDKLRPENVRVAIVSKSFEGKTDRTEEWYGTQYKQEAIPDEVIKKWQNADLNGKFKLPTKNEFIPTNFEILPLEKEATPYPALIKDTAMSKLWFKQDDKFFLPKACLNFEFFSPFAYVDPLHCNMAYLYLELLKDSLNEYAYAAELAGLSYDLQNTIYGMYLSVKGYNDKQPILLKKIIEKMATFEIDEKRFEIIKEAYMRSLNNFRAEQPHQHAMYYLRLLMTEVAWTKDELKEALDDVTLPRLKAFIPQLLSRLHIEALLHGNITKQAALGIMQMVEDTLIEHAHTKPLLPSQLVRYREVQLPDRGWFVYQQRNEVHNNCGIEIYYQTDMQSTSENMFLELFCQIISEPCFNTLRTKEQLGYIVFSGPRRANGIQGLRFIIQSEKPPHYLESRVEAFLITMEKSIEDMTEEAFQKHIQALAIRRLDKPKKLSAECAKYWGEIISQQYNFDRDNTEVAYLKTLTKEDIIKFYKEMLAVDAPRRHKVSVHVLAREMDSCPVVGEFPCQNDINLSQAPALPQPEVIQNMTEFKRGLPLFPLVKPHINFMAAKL
The experiment in a line: Dose Response: Fluorescence polarization-based cell-based high throughput dose response assay for inhibitors of insulin-degrading enzyme (IDE). [Related pubchem assays: 434962 (Primary screen (IDE inhibitors in singlicate)), 449730 (Counterscreen (Cytotoxicity in triplicate)), 435028 (Confirmation (IDE inhibitors in triplicate)), 434984 (Summary …. In kind it is functional. For orientation: Fluorescence polarisation rises when a labelled molecule tumbles more slowly, as on binding a larger partner.

Assay [15] is described as follows: insulin promoter down-regulators in MIN6 cells, imaging, high-content screening, mouse beta cells (AID 1628). The class given is functional.
Assay [16] can be described thus: cytotoxicity in MIN6 insulinoma cells, dose response, cytotoxicity control, cell-based, mouse insulinoma (AID 2122).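 Also: confirmatory high-throughput counterscreen run to flag cytotoxic compounds; mouse MIN-6 beta cells carrying an insulin promoter eGFP reporter.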 The class given is functional.

T3 sequence (Q9HC29 whole entry, the tested form may be a part): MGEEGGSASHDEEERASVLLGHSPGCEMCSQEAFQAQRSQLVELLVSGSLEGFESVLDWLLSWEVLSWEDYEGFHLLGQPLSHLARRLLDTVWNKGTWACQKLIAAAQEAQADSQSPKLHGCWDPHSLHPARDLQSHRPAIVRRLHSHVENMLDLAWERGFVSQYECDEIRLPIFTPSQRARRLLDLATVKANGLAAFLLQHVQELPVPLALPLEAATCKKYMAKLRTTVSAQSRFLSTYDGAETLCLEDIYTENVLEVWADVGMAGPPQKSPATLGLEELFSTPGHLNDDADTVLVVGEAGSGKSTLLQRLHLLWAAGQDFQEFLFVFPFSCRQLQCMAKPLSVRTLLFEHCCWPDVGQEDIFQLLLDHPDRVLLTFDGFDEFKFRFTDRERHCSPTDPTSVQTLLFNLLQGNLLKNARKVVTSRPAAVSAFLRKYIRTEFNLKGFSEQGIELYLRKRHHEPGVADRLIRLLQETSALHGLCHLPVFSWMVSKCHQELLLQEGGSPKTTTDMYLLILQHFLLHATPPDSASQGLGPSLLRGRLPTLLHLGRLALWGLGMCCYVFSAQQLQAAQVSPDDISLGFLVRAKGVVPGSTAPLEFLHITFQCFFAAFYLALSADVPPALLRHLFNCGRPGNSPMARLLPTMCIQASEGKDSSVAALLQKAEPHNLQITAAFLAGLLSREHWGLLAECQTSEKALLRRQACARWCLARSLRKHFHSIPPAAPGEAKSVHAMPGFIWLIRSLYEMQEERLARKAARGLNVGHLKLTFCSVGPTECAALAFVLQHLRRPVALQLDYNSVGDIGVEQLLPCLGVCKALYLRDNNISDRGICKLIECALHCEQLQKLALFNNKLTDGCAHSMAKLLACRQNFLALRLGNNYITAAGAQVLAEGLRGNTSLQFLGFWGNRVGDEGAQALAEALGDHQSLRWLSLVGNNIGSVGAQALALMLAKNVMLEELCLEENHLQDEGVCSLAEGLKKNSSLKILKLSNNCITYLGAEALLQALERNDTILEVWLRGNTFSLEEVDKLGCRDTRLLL
Sequence of Tumor necrosis factor (P01375 whole entry, the tested form may be a part): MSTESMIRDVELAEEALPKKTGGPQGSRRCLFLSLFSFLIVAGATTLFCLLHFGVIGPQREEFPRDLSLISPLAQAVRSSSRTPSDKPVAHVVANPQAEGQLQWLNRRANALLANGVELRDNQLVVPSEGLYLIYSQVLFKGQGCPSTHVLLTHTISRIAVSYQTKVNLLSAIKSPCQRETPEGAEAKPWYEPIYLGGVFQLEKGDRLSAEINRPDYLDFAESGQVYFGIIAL
Sequence of Intestinal-type alkaline phosphatase (Homo sapiens, UniProt P09923) (P09923 whole entry): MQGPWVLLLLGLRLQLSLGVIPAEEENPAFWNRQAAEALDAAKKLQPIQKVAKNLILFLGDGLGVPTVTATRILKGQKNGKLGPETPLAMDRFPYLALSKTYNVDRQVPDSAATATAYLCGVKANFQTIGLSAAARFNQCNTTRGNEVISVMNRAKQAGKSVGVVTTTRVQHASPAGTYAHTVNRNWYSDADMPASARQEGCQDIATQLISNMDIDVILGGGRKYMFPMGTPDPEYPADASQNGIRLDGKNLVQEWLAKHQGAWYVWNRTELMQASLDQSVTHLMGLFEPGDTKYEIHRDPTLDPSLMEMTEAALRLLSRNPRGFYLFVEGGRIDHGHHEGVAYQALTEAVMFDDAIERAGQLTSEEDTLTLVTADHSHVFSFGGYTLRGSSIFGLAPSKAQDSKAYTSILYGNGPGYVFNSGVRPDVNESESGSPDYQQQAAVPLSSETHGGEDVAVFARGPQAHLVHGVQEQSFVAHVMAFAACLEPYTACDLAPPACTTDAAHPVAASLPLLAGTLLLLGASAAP
Sequence of Intestinal-type alkaline phosphatase (Mus musculus, UniProt P24822) (P24822 whole entry): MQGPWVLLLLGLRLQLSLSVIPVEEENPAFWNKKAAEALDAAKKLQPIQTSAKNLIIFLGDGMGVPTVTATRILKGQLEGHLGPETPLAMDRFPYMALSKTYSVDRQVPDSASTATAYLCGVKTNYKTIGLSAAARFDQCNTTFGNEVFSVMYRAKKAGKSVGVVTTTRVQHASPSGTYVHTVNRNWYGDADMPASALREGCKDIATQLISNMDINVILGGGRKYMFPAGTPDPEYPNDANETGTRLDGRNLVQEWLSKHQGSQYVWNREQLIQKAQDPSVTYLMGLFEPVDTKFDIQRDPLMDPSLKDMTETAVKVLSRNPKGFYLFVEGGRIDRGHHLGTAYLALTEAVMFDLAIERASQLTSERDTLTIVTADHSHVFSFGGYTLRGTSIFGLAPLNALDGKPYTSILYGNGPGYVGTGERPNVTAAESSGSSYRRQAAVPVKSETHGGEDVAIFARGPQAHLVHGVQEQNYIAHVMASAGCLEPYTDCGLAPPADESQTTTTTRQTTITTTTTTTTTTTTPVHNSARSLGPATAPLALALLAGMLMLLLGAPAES

On to `CCCn1c(SCC(=O)Nc2nc3c(s2)CCCC3)nc2c1c(=O)n(C)c(=O)n2C`, for which the IC50 was > 20 µM (inactive) in the assay with HEK293 [1]; > 25 µM (inactive) at Interleukin-8 [2]; 1.63 µM (active) in assay [3]; 2.12 µM (active) at Tumor necrosis factor; 1.98 µM (active) in assay [4]; > 25 µM (inactive) at Interleukin-8 [5]. Also, the IC50 was > 25 µM (inactive) in assay [6], > 20 µM (inactive) in the assay with HEK293 [7], 1.2 µM (active) in assay [8] and 1.36 µM (active) in assay [9].

For the compound `C/C=C/Cn1c(SCc2ccc(Cl)cc2)nc2c1c(=O)[nH]c(=O)n2C`, the IC50 was > 20 µM (inactive) in the assay on HEK293 [1]; > 25 µM (inactive) on Interleukin-8 [2]; 14.7 µM (active) in assay [3]; > 20 µM (inactive) at Tumor necrosis factor; 13.7 µM (active) in assay [4]; > 25 µM (inactive) on Interleukin-8 [5]. Further, the IC50 in assay [6] was > 25 µM (inactive); in the assay on HEK293 [7], > 20 µM (inactive); in assay [8], > 20 µM (inactive); in [9], > 20 µM (inactive).

`CSC1=NSC2=NC(=O)/C(=C/c3coc4ccc(O)cc4c3=O)C(=N)N12`: the concentration for a half-maximal effect (EC50) in assay [10] is 30.2 µM (active); in assay [13], 20.8 µM (active); in assay [14] it was 24.9 µM (active). Moreover, in [11], the AC50 is 7.62 µM (active). The IC50 is > 55.7 µM (not active) in [12] and > 6.21 µM (active) at Insulin-degrading enzyme.

Consider `CC(C)Oc1cccc(C(=O)C2CCCN(Cc3cccn3-c3ccccn3)C2)c1` (stereo not drawn), for which the half-maximal inhibitory concentration (IC50) is 3.3 µM (active) in [15] and 7.53 µM (active) in assay [16].

By IC50 is commonly meant the point on the concentration scale where inhibition reaches its midpoint. A word on the EC50: it is the concentration giving half of the maximal effect. By AC50 is commonly meant the midpoint of the concentration-response curve, whichever way the signal moves.
